Legend:
HBV = assay: Anti-HBV activity in HepG2.117 cell line (intracellular HBV DNA, real-time PCR); format: cell-based, hepatitis B virus; conditions: HepG2.117 cells, HBV replication induced, 3 days of treatment, intracellular HBV DNA by real-time PCR
Description: The anti HBV activity was measured using the HepG2.117 cell line, a stable, inducibly HBV producing cell line, which replicates HBV in the absence of doxycycline (Tet-off system). The HepG2 cell line is available from ATCCR under number HB-8065. Transfection of the HepG2 cell line can be as described in Sun and Nassal 2006 Journal of Hepatology 45 (2006) 636-645 “Stable HepG2-and Huh7-based human hepatoma cell lines for efficient regulated expression of infectious hepatitis B virus”.
For the antiviral assay, HBV replication was induced, followed by a treatment with serially diluted compound in 96-well plates. After 3 days of treatment, the antiviral activity was determined by quantification of intracellular HBV DNA using real-time PCR and an HBV specific primer set and probe.

[1] = Cytotoxicity, ATPlite Luminescence Assay; format: cell-based, human; conditions: human, HepG2 or HepG2.117 cells, 3-days incubation unless marked with *, ATPlite viability
Description: Cytotoxicity of the compounds was tested using HepG2 or HepG2.117 cells, incubated for 3 or 4 days in the presence of compounds. The viability of the cells was assessed using the PERKIN ELMER ATPlite Luminescence Assay System.”

[2] = Human liver microsome stability; format: in vitro ADME; conditions: human, pooled human liver microsomes, pH 7.4, pooled human liver microsomes 0.5 mg/mL, 1 μM compound, NADPH 1 mM, pH 7.4, 37° C., 0-60 min; read-out: HLM Metabolism t1/2
Description: Pooled human liver microsomes (0.5 mg/mL) was pre-incubated with 1 μM test compounds or control compounds (verapamil, warfarin and cerivastatin) in 0.1 M phosphate buffer pH 7.4 containing 1 mM MgCl2 at 37° C. The final concentration of DMSO and acetonitrile are 0.05% and 0.2%, respectively. All incubations are performed singularly for each compound. NADPH was added to initiate the reaction with the final concentration of 1 mM and the final incubation volume of 400 μL.
At 6 time points (0, 5, 10, 20, 40 and 60 min) reactions were stopped by the removal of 50 μL of the incubation mixture into plates containing acetonitrile at a of 1:3 (v:v). The plates were centrifuged at 3000 rpm for 10 min at 4° C. to precipitate the protein. Following protein precipitation, the sample supernatants were combined in cassettes of up to 8 compounds. The internal standard was added (1:1 supernatant to internal standard solution) and samples were analyzed using standard LC-MS conditions.
From a plot of ln peak area ratio (compound peak area/internal standard peak area) against time, the gradient of the line is determined. Subsequently, half-life is calculated using the equations below: […]

[3] = Hepatitis B virus, HepG2.117, 72 h

SMILES	EC50 (HBV; [3]) [µM]	CC50 [1] [µM]	half-life at 1 μM [2] [h]	EC50 (HBV) [µM]
CNC(=O)[C@@H]1CN([C@@H](C)c2ccc(C(F)(F)F)nc2)C(=O)c2c3c(nn21)C[C@@H](C)N(C(=O)c1ccc(Cl)c(C(F)(F)F)c1)C3 [Compound 15B, (3R,7S)-2-(4-chloro-3-(trifluoromethyl)benzoyl)-N,3-dimethyl-10-oxo-9-((S)-1-(6-(trifluoromethyl)pyridin-3-yl)ethyl)-1,2,3,4,7,8,9,10-octahydropyrido[4′,3′:3,4]pyrazolo[1,5-a]pyrazine-7-carboxamide]	0.029	29.8	> 3	–
CNC(=O)[C@@H]1CN(C(C)c2ccc(C(F)F)nc2)C(=O)c2c3c(nn21)C[C@@H](C)N(C(=O)c1ccc(Cl)c(Cl)c1)C3 (single isomer, unassigned) [Compound 36A, (3R,7S)-2-(3,4-Dichlorobenzoyl)-9-((R*)-1-(6-(difluoromethyl)pyridin-3-yl)ethyl)-N,3-dimethyl-10-oxo-1,2,3,4,7,8,9,10-octahydropyrido[4′,3′:3,4]pyrazolo[1,5-a]pyrazine-7-carboxamide]	0.086	> 50	> 3	–
CNC(=O)[C@@H]1CN(C(C)c2ccc(C(C)(C)O)cn2)C(=O)c2c3c(nn21)C[C@@H](C)N(C(=O)c1ccc(Cl)c(Cl)c1)C3 (single isomer, unassigned) [Compound 39A, (3R,7S)-2-(3,4-Dichlorobenzoyl)-9-((R*)-1-(5-(2-hydroxypropan-2-yl)pyridin-2-yl)ethyl)-N,3-dimethyl-10-oxo-1,2,3,4,7,8,9,10-octahydropyrido[4′,3′:3,4]pyrazolo[1,5-a]pyrazine-7-carboxamide]	–	> 50	> 3	1.68
CNC(=O)[C@@H]1CN(C(C)c2ccc(OC(F)F)c(F)c2)C(=O)c2c3c(nn21)C[C@@H](C)N(C(=O)c1ccc(Cl)c(Cl)c1)C3 (single isomer, unassigned) [Compound 24A, (3R,7S)-2-(3,4-Dichlorobenzoyl)-9-((R*)-1-(4-(difluoromethoxy)-3-fluorophenyl)ethyl)-N,3-dimethyl-10-oxo-1,2,3,4,7,8,9,10-octahydropyrido[4′,3′:3,4]pyrazolo[1,5-a]pyrazine-7-carboxamide]	–	20.6	> 3	0.054
CNC(=O)[C@@H]1CN(C(C)c2ccc(OC)nc2)C(=O)c2c3c(nn21)C[C@@H](C)N(C(=O)c1ccc(Cl)c(Cl)c1)C3 (single isomer, unassigned) [Compound 31A, (3R,7S)-2-(3,4-Dichlorobenzoyl)-9-((R*)-1-(6-methoxypyridin-3-yl)ethyl)-N,3-dimethyl-10-oxo-1,2,3,4,7,8,9,10-octahydropyrido[4′,3′:3,4]pyrazolo[1,5-a]pyrazine-7-carboxamide]	–	> 50	> 3	0.066
CNC(=O)[C@@H]1CN(C(C)c2ccc(S(=O)(=O)C3CC3)cc2)C(=O)c2c3c(nn21)C[C@@H](C)N(C(=O)c1ccc(Cl)c(C(F)(F)F)c1)C3 (single isomer, unassigned) [Compound 20A, (3R,7S)-2-(4-Chloro-3-(trifluoromethyl)benzoyl)-9-((R*)-1-(4-(cyclopropylsulfonyl)phenyl)ethyl)-N,3-dimethyl-10-oxo-1,2,3,4,7,8,9,10-octahydropyrido[4′,3′:3,4]pyrazolo[1,5-a]pyrazine-7-carboxamide]	–	> 50	> 3	0.089
CNC(=O)[C@@H]1CN(C(C)c2ccc(N3CCCC3=O)nc2)C(=O)c2c3c(nn21)C[C@@H](C)N(C(=O)c1ccc(Cl)c(Cl)c1)C3 (single isomer, unassigned) [Compound 34A, (3R,7S)-2-(3,4-Dichlorobenzoyl)-N,3-dimethyl-10-oxo-9-((R*)-1-(6-(2-oxopyrrolidin-1-yl)pyridin-3-yl)ethyl)-1,2,3,4,7,8,9,10-octahydropyrido[4′,3′:3,4]pyrazolo[1,5-a]pyrazine-7-carboxamide]	0.38	> 50	1.83	–
CNC(=O)[C@@H]1CN(C(C)c2ccc(-n3ncnc3C)cn2)C(=O)c2c3c(nn21)C[C@@H](C)N(C(=O)c1ccc(Cl)c(Cl)c1)C3 (single isomer, unassigned) [Compound 41A, (3R,7S)-2-(3,4-Dichlorobenzoyl)-N,3-dimethyl-9-((R*)-1-(5-(5-methyl-1H-1,2,4-triazol-1-yl)pyridin-2-yl)ethyl)-10-oxo-1,2,3,4,7,8,9,10-octahydropyrido[4′,3′:3,4] pyrazolo[1,5-a]pyrazine-7-carboxamide]	–	> 50	> 3	2.21
CNC(=O)[C@@H]1CN([C@H](C)c2cnc(C(F)(F)F)nc2)C(=O)c2c3c(nn21)C[C@@H](C)N(C(=O)c1ccc(Cl)c(Cl)c1)C3 [Compound 4A, (3R,7S)-2-(3,4-Dichlorobenzoyl)-N,3-dimethyl-10-oxo-9-((R)-1-(2-(trifluoromethyl)pyrimidin-5-yl)ethyl)-1,2,3,4,7,8,9,10-octahydropyrido[4′,3′:3,4]pyrazolo[1,5-a]pyrazine-7-carboxamide]	2.44	> 50	> 3	–
CNC(=O)[C@@H]1CN(C(C)c2cccc(Cl)n2)C(=O)c2c3c(nn21)C[C@@H](C)N(C(=O)c1ccc(Cl)c(Cl)c1)C3 (single isomer, unassigned) [Compound 38A, (3R,7S)-9-((R*)-1-(6-Chloropyridin-2-yl)ethyl)-2-(3,4-dichlorobenzoyl)-N,3-dimethyl-10-oxo-1,2,3,4,7,8,9,10-octahydropyrido[4′,3′:3,4]pyrazolo[1,5-a]pyrazine-7-carboxamide]	0.068	> 50	> 3	–
CNC(=O)[C@@H]1CN([C@@H](C)c2ccc(OC(F)F)cc2)C(=O)c2c3c(nn21)C[C@@H](C)N(C(=O)c1ccc(Cl)c(C(F)(F)F)n1)C3 [Compound 45, (3R,7S)-2-(5-Chloro-6-(trifluoromethyl)picolinoyl)-9-((S)-1-(4-(difluoromethoxy)phenyl)ethyl)-N,3-dimethyl-10-oxo-1,2,3,4,7,8,9,10-octahydropyrido[4′,3′:3,4]pyrazolo[1,5-a]pyrazine-7-carboxamide]	0.067	49.8	> 3	–
CNC(=O)[C@@H]1CN([C@H](C)c2ccc(OC(F)F)cc2)C(=O)c2c3c(nn21)C[C@@H](C)N(C(=O)c1ccc(Cl)c(Cl)c1)C3 [Compound 16A, (3R,7S)-2-(3,4-dichlorobenzoyl)-9-((R)-1-(4-(difluoromethoxy)phenyl)ethyl)-N,3-dimethyl-10-oxo-1,2,3,4,7,8,9,10-octahydropyrido[4′,3′:3,4]pyrazolo[1,5-a]pyrazine-7-carboxamide]	0.021	40.4	> 3	–
CNC(=O)[C@@H]1CN(C(C)c2ccc(C(F)(F)F)nc2)C(=O)c2c3c(nn21)C[C@@H](C)N(C(=O)c1ccc(Br)c(Cl)c1)C3 (single isomer, unassigned) [Compound 10B, (3R,7S)-2-(4-bromo-3-chlorobenzoyl)-N,3-dimethyl-10-oxo-9-((S*)-1-(6-(trifluoromethyl)pyridin-3-yl)ethyl)-1,2,3,4,7,8,9,10-octahydropyrido[4′,3′:3,4]pyrazolo[1,5-a]pyrazine-7-carboxamide]	0.019	46.8	> 3	–

Reference: patent publication US20240279227A1, “FUSED HETEROCYCLIC DERIVATIVES” (Janssen Sciences Ireland Unlimited Company, priority 2021, published 2024)
